Laboratory results taken from patent US12478640B2, “Inhalation of nitric oxide for treating respiratory diseases” (BEYOND AIR LTD, priority 2012, dated 2025).
Like-named read-outs stand apart in the source and are kept apart here.

How the values were obtained:
[1] = tested on: bovine respiratory disease; conditions: intermittent gNO inhalation; cattle; cited from earlier work
[2] = gNO concentrations below 200 ppm; 6 hours/day for 28 days; rats; cited from earlier work
[3] = phase I safety study: plasma cytokines, cytometric bead array; assay type: in vivo, human; conditions: 160 ppm gNO inhalation vs baseline
Source text: (§1) Cohort: 10 healthy adult volunteer subjects (5 males, 5 females), aged 20 to 62 years, were enrolled in the study after screening their medical history, a physical examination, pulmonary function tests and blood values. Exclusion criteria included individuals less than 19 years of age, pregnant females and unwilling to practice birth control during the study, diagnosed with pulmonary disease, epistaxis, hemoptysis, methemoglobinemia, organ transplant recipient or receiving antibiotic therapy.
(§2) Regimen and post-treatment: After obtaining informed consent, treatment was initiated within 5 days of enrollment. Subjects were housed in a hospital ward and received 160 ppm gNO for 30 minutes every four hours (Q4h), five times a day, for five consecutive days by inhalation. Subjects returned for follow-up evaluations 3, 7 and 21 days after the final gNO administration. Subject safety was determined by monitoring vital signs, methemoglobin levels, lung function, blood chemistry, hematology, prothrombin time, inflammatory cytokine/chemokines levels and endothelial activation. These parameters were compared to baseline and at various time-points during and after gNO administration.
(§3) Hematological assessment included a complete blood count and differentials (hemoglobin, hematocrit, red blood cell count, white blood cell count, white blood cell differential, and platelet count) were obtained in order to monitor blood chemistry, hematology and inflammation measurements. The blood chemistry profile included serum creatinine, and liver function tests such as aspartate aminotransferase (AST) serum glutamic oxaloacetic transaminase (SGOT), alkaline phosphatase, and gamma-glutamyl transferase (GGT). The effect of gNO on coagulation was determined by the prothrombin time (PT) and its derived measures of prothrombin ratio (PR) and international normalized ratio (INR). Heparinized plasma was collected at baseline and on days 1, 2, 4, and 5 of gNO administration, and on follow-up days 3, 7 and 21 and frozen at −80° C. Plasma cytokine levels were assessed using the human inflammation cytokine bead array kit (BD Bioscience, Canada). Plasma levels of angiopoietin Ang-1 and Ang-2 were determined by ELISA (R&D Systems, USA).
FIGS. 6A-F present blood levels of various cytokines before and after inhalation of 160 ppm gaseous nitric oxide by 10 healthy human individuals, as measured from blood samples collected within 7 days prior to gNO administration, each day during the treatment and 8, 12 and 26 days thereafter, wherein FIG. 6A presents the plasma levels of tumor necrosis factor (TNF)α, interleukin (IL)-1β data is presented in FIG. 6B, IL-6 in FIG. 6C, IL-8 in FIG. 6D, IL-10 in FIG. 6E and IL-12p70 in FIG. 6F, as determined by a cytometric bead array while statistical differences are compared by repeated measures ANOVA with Bonferroni post test for parametric data (IL-6, IL-8, IL-10, IL-12p70), or Friedman test with Dunn's post test for non-parametric data (TNF and IL-1b).

[4] = phase I safety study in healthy adults: adverse events and vital signs; assay type: in vivo, human; conditions: 160 ppm gNO 30 min, 5 times a day, 5 days
Source text: as §1
(§4) Regimen and post-treatment: After obtaining informed consent, treatment was initiated within 5 days of enrollment. […] Subject safety was determined by monitoring vital signs, methemoglobin levels, lung function, blood chemistry, hematology, prothrombin time, inflammatory cytokine/chemokines levels and endothelial activation. […]
(§5) General medical examinations were performed by a pulmonary physician on screening and on days 8, 12 and 26 to obtain oxygenation and vital sign measurements. […] Oxygenation was measured with a pulse oximeter (Rad 57, Masimo Corporation, USA) which was used according to manufacturer's guidelines to measure functional oxygen saturation of arterial hemoglobin (SPO2) and heart rate. These parameters were measured continuously during every gNO administration and for 3.5 hours after the first treatment of the day. […]

[5] = phase I safety study: methemoglobin (SpMet) by pulse oximeter; assay type: in vivo, human
Source text: as §1, §2
The levels of gNO, NO2, O2 and methemoglobin were monitored during the administration of gNO. The target gas mixture was 160 ppm gNO with a nitrogen dioxide (NO2) level of less than 5 ppm and an oxygen (O2) level ranging from 21% to 25%. Inspiratory NO, NO2 and O2 levels were continuously monitored by sampling from the mouthpiece sample port located about 6 millimeters from the mouth of the subject with an AeroNOx (Pulmonox, AB, Canada) NO, NO2 and O2 electrochemical analyzer. Delivery safety was determined by the number of occasions that NO2 exceeded 5 ppm, gNO exceeding 10% variation and O2 dropping below 20% during gNO administration. A commercially available noninvasive pulse oximeter (Rad 57, Masimo Corporation, USA) was used to measure saturation levels at the periphery of methemoglobin (SpMet).
These parameters were measured continuously during every gNO administration course and for 3.5 hours after the first treatment of the day. Daily serum samples were collected and frozen at −80° C. and the serum […] level was measured using the Griess reagent.

[6] = phase I safety study: oxygen saturation (SpO2) by pulse oximeter; assay type: in vivo, human
Source text: as §1, §4, §5

P. aeruginosa = conditions: solid media, cited from earlier work
[7] = tested on: influenza A/victoria/H3N2; conditions: 160 ppm gNO, cited from earlier work
[8] = phase I safety study: pulmonary function tests; assay type: in vivo, human
Source text: as §1, §2
Subjects underwent full pulmonary function tests (PFT), including lung diffusing capacity (DLCO) by a trained technician utilizing a calibrated pulmonary function system (Jaeger MasterScreen, VIASYS Healthcare, USA) on screening and days 2, 8, 12 and 26. Spirometry test (Microloop by Micro Medical, England) was performed on days 1, 3 and 4. Effect of gNO on lung function and DLCO was determined by changes from baseline, treatment days and follow up days.

[9] = healthy humans, cited from earlier work
[10] = tested on: Pseudomonas aeruginosa pneumonia; conditions: 160 ppm gNO, intermittent 30 minute exposures; rat; cited from earlier work
[11] = phase I safety study: plasma angiopoietins Ang-1 and Ang-2; assay type: in vivo, human; conditions: 160 ppm gNO inhalation vs baseline
Source text: as §1, §2
as §3, with “Heparinized plasma was collected at baseline and on days 1, 2, 4, and 5 of gNO administration, and on follow-up days 3, 7 and 21 and frozen at −80° C.” left out, “USA). […]” for “USA).”

[12] = cited from earlier work
[13] = tested on: chronic, non-healing wound; conditions: topical 200 ppm gNO; within the first three days; cited from earlier work
[14] = tested on: highly pathogenic Avian Influenza H7N3; conditions: cited from earlier work
variety of microbes = conditions: 200 ppm gNO, cited from earlier work
[15] = tested on: five planktonic species of methicillin resistant S. aureus (MRSA); conditions: 1,600 ppm hours of gNO; all five strains; cited from earlier work
S. aureus = conditions: solid media, cited from earlier work
[16] = gNO greater than 120 ppm, vs medical air
[17] = during the course of the study vs baseline

Compound: [N]=O [gNO, nitric oxide]
- clinical symptoms of bovine respiratory disease [1]: decrease the clinical symptoms
- deaths [2]: No deaths occurred
- plasma IL-1b level [3]: unaffected
- plasma IL-6 level [3]: unaffected
- plasma IL-8 level [3]: unaffected
- plasma IL-10 level [3]: unaffected
- plasma IL-12p70 level [3]: unaffected
- plasma TNF level [3]: unaffected
- tolerability of treatments ([4]; 10 healthy adults, 250 administrations): well tolerated
- minor adverse events reported ([4]; arm bruising from blood draws (1), numbing of tongue (2)): Three minor adverse events
- follow-up SpMet ([5]; 3, 7 and 21 days after final exposure): did not show any residual increase in SpMet
- all 930 recorded methemoglobin percent levels (SpMet) ([5]; 160 ppm gNO 30 min, 5 times a day, 5 days): < 5%
- SpMet increase between pretreatment and post treatment ([5]; 160 ppm gNO 30 min, p<0.001): about 1%
- time for SpMet to return to baseline ([5]; after 160 ppm gNO 30 min, prior to next administration): 3.5 h
- highest SpMet ([5]; at the end of the 30 minutes treatment, 160 ppm gNO): 2.5%
- accumulation of SpMet with repeated treatments ([5]; five daily treatments for five consecutive days): no accumulative or lingering effect
- SpMet level of subjects undergoing the method ([5]; general statement referring to the Examples): ≤ 1%
- average increase of SpMet ([5]; single 30 minutes treatment course, 160 ppm gNO, baseline 0.16 percent): 0.9%
- SpO2 change between pretreatment and post treatment ([6]; 160 ppm gNO, not significant statistically nor clinically): decreased slightly
- hypoxemia (less than 85% SpO2) ([6]; during or after 160 ppm gNO administration): No sudden incidences of hypoxemia
- survival (downward bactericidal trend) (P. aeruginosa; 50-160 ppm gNO): 5-10%
- reduction of colony formation (P. aeruginosa; [16]): greater than 90%
- infectivity of virions ([7]; MDCK cells): reducing the infectivity
- anti-viral effect, intermittent vs single exposure ([7]; one 30 minute dose vs three 30 minute treatments Q4h): more evident in the intermittent form of exposure
- pulmonary function tests ([8]; during and after 160 ppm gNO treatments): did not reveal any abnormalities
- FEV1 [8, 17]: did not differ from baseline
- maximum mid-expiratory flow (MMEF) [8, 17]: did not differ from baseline
- MetHb level ([9]; inhalation of 128 ppm for 3 hours): > 5%
- MetHb level ([9]; inhalation of 512 ppm for 55 minutes): > 5%
- leukocyte infiltration [10]: effective to reduce
- pulmonary bioburden [10]: effective to reduce
- Ang-2/Ang-1 ratio [11]: not affected
- plasma Ang-1 [11]: unaffected
- plasma Ang-2 [11]: not affected
- mortality ([12]; 300 ppm gNO, first 1-2 days, group of 10 rats): Six of the animals treated with 300 ppm gNO died
- mortality ([12]; 400 ppm gNO, first day of exposure, groups of 10 rats): all of the animals died
- mortality ([12]; 500 ppm gNO, first day of exposure, groups of 10 rats): all of the animals died
- biofilm of the wound [13]: no longer visibly present
- infectivity of virions [14]: reducing the infectivity
- bactericidal effect (variety of microbes; all microorganisms tested): complete bactericidal effect
- reduction in CFU/mL (variety of microbes; every bacteria challenged): ≥ 3 log10
- population of planktonic MRSA strains [15]: reduction in the population
- survival (downward bactericidal trend) (S. aureus; 50-160 ppm gNO): 5-10%
- reduction of colony formation (S. aureus; [16]): greater than 90%
